From paper PMC8587653 (Molecules, 2021)

Key:
[1] = molecular target: butyrylcholinesterase (E.C. 3.1.1.8, from horse serum) (Equus caballus, UniProt P81908); experiment: In vitro butyrylcholinesterase inhibition assay (Ellman's method); type: biochemical; settings: for Butyrylcholinesterse (BChE) %inhibition: compounds with <50% inhibition
[2] = molecular target: Acetylcholinesterase (E.C.3.1.1.7, from electric eel) (Electrophorus electricus, UniProt O42275); experiment: biochemical; type: biochemical; settings: for IC50: electric eel AChE, pH 7.7, 37 °C, triplicate, read-out: Acetylcholinesterase (AChE) IC50 ± SEM
Chain of Acetylcholinesterase (E.C.3.1.1.7, from electric eel) (O42275 24-633): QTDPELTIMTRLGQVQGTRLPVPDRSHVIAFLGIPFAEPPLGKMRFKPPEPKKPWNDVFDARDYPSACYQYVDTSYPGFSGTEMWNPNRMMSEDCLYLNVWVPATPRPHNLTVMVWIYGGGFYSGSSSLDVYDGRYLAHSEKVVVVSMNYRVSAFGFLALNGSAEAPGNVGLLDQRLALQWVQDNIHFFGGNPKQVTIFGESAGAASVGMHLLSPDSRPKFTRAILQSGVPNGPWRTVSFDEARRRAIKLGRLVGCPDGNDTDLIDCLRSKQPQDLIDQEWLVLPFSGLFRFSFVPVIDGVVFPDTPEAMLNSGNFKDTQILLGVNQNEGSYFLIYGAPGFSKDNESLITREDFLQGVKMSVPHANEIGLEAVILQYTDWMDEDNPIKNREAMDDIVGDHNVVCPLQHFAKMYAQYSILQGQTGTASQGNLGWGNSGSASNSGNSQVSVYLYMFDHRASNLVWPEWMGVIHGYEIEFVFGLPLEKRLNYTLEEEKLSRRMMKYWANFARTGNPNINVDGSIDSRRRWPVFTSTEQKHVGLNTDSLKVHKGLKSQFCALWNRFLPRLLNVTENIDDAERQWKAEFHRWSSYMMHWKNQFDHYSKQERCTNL

[3] = molecular target: acetylcholinesterase (Electrophorus electricus, UniProt O42275); experiment: Kinetics studies, mechanism of inhibition (Lineweaver-Burk); type: biochemical, electric eel; settings: substrate acetylthiocholine iodide; Vmax not affected, Km increased
Chain of acetylcholinesterase (O42275 24-633): as above
Procedure: Enzyme kinetics were used to determine the mechanism of acetylcholinesterase inhibition. Lineweaver-Burk graph ([…]) were used for the determination of the type of inhibition and analysis of effect of inhibitor on Vmax and Kₘ. The slope Km/Vmax of each line in the Lineweaver-Burk plot was plotted against different concentrations of substrate and chemicals to determine the value of Ki.
Kinetics studies were performed on 5b and 5d with different concentrations of compounds and substrate. Four concentrations of 1 mM compound 5b (0, 0.06, 0.12, 0.18 µM), compound 5d (0, 0.3, 0.6, 0.9 µM) and four concentrations of substrate (0, 0.5, 1.0, 1.5 and 2.0 mM showing 1/S as 0.0, 2.0, 1.0, 0.667 and 0.5, respectively) were made. Both compounds competes with substrate (acetylthiocholine iodide) for binding in the active site of acetylcholinesterase.
Michaelis-Menten kinetics experiments were used to determine the type of enzyme inhibition. […] For this purpose, the initial rates of the enzyme inhibition at four concentrations of substrate (0, 0.5, 1.0, 1.5, 2.0 mM) in the absence and presence of four different concentrations of compound 5b (0, 0.06, 0.12, 0.18 µM) and compound 5d (0, 0.3, 0.6, 0.9 µM) against acetylcholinesterase were measured.

Chain of butyrylcholinesterase (E.C. 3.1.1.8, from horse serum) (P81908 whole entry): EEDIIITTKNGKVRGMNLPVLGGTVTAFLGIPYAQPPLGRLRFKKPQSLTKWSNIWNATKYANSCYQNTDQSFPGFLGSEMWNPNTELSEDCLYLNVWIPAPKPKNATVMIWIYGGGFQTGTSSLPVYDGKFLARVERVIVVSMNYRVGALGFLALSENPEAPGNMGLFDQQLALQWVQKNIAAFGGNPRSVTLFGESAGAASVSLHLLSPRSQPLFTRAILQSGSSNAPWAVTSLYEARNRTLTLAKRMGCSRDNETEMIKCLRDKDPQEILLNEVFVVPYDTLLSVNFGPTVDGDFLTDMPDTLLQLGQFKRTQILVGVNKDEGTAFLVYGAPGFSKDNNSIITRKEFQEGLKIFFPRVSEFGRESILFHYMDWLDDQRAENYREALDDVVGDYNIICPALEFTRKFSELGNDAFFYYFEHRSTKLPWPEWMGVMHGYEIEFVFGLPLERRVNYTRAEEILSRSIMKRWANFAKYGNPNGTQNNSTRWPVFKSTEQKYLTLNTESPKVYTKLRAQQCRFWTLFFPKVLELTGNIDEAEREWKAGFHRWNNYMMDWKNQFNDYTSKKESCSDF

| Compound | Butyrylcholinesterse (BChE) %inhibition [1] [%] | IC50 [2] [µM] | Potency against AChE relative to standard drug galantamine ([2]; ratio of IC50 values vs galantamine) [fold] | Mode of inhibition of acetylcholinesterase [3] | IC50 ([1]; horse serum BChE, pH 7.7, 37 °C, triplicate, read-out: Butyrylcholinesterse (BChE) IC50 ± SEM) [µM] |
| --- | --- | --- | --- | --- | --- |
| S=C(NCCN1CCOCC1)NN=Cc1cc2ccccc2nc1Cl [Compound 5a, 2-((2-Chloroquinolin-3-yl)methylene)-N-(2-morpholinoethyl)hydrazinecarbothioamide] | 3.32 | 2.95 ± 0.24 |  |  |  |
| COc1ccc2nc(Cl)c(C=NNC(=S)NCCN3CCOCC3)cc2c1 [Compound 5b, 2-((2-Chloro-6-methoxyquinolin-3-yl)methylene)-N-(2-morpholinoethyl)hydrazinecarbothioamide] | 8.12 | 0.12 ± 0.02 | 5 | competitive inhibition |  |
| COc1ccc2cc(C=NNC(=S)NCCN3CCOCC3)c(Cl)nc2c1 [Compound 5c, 2-((2-Chloro-7-methoxyquinolin-3-yl)methylene)-N-(2-morpholinoethyl)hydrazinecarbothioamide] | 1.33 | 5.53 ± 0.11 |  |  |  |
| Cc1ccc2cc(C=NNC(=S)NCCN3CCOCC3)c(Cl)nc2c1 [Compound 5d, 2-((2-Chloro-7-methylquinolin-3-yl)methylene)-N-(2-morpholinoethyl)hydrazinecarbothioamide] | 1.52 | 0.55 ± 0.01 |  | competitive inhibition |  |
| S=C(NCCN1CCOCC1)NN=Cc1cc2ccc(Cl)cc2nc1Cl [Compound 5e, 2-((2,7-Dichloroquinolin-3-yl)methylene)-N-(2-morpholinoethyl)hydrazinecarbothioamide] | 1.88 | 10.5 ± 0.16 |  |  |  |
| S=C(NN=Cc1cc2ccccc2nc1Cl)Nc1ccccc1 [Compound 5f, 2-((2-Chloroquinolin-3-yl)methylene)-N-phenylhydrazinecarbothioamide] | 4.47 | 23.2 ± 1.28 |  |  |  |
| COc1ccc2nc(Cl)c(C=NNC(=S)Nc3ccccc3)cc2c1 [Compound 5g, 2-((2-Chloro-6-methoxyquinolin-3-yl)methylene)-N-phenylhydrazinecarbothioamide] |  | 34.2 ± 1.02 |  |  | 11.3 ± 0.67 |
| Cc1ccc2nc(Cl)c(C=NNC(=S)Nc3ccccc3)cc2c1 [Compound 5h, 2-((2-Chloro-6-methylquinolin-3-yl)methylene)-N-phenylhydrazinecarbothioamide] | 32.6 | 49.3 ± 2.49 |  |  |  |
| COc1ccc2cc(C=NNC(=S)Nc3ccccc3)c(Cl)nc2c1 [Compound 5i, 2-((2-Chloro-7-methoxyquinolin-3-yl)methylene)-N-phenylhydrazinecarbothioamide] | 24.0 | 60.9 ± 6.57 |  |  |  |
| Cc1ccc2cc(C=NNC(=S)Nc3ccccc3)c(Cl)nc2c1 [Compound 5j, 2-((2-Chloro-7-methylquinolin-3-yl)methylene)-N-phenylhydrazinecarbothioamide] | 16.8 | 46.5 ± 3.12 |  |  |  |
| S=C(NN=Cc1cc2ccc(Cl)cc2nc1Cl)Nc1ccccc1 [Compound 5k, 2-((2,7-Dichloroquinolin-3-yl)methylene)-N-phenylhydrazinecarbothioamide] | 20.3 | 47.1 ± 1.45 |  |  |  |
